Test system: not listed separately
Test: logP determination by HPLC (EEC Directive 79/831 Annex V. A8)
Format: physicochemical
Details: gradient method, acetonitrile/0,1% aqueous phosphoric acid
Procedure: The logP values were determined in accordance with EEC Directive 79/831 Annex V. A8 by HPLC (Gradient method, acetonitrile/0,1% aqueous phosphoric acid)

Structure (SMILES)	chromatographic logP
Cc1noc(C)c1S(=O)(=O)n1cc(Cl)c(Cl)c1C#N [Example 11]	3.13
Cc1noc(C)c1S(=O)(=O)n1c(Br)c(Br)c(Br)c1C#N [Example 3]	3.58
Cc1noc(C)c1S(=O)(=O)n1c(C)c(Br)c(Br)c1C#N [Example 1, 3,4-dibromo-1-[(3,5-dimethyl-4-isoxazolyl)-sulfonyl]-5-methyl-1H-pyrrole-2-carbonitrile]	3.62

Test system: Phytophthora infestans
Test: not given
Format: in vivo
Details: tomato plants, protective spray, application rate 50 g/ha, evaluation three days after inoculation; 100% = no infection

Structure (SMILES)	Efficacy in % [%]
Cc1noc(C)c1S(=O)(=O)n1c(Br)c(Br)c(Br)c1C#N [drawing 9]	98
Cc1noc(C)c1S(=O)(=O)n1cc(Cl)c(Cl)c1C#N [drawing 11]	94
Cc1noc(C)c1S(=O)(=O)n1cc(Cl)c(Cl)c1C#N [drawing 10]	95

Source: patent US20040077880A1 (priority 2000, published 2004)
